Reference: EPA's CvTdb concentration-time database

How the values were obtained:
[1] = system: Rat; assay: concentration in plasma after dosing
[2] = system: Mouse; assay: concentration in plasma after dosing; details: dosed: 2-Hydroxy-4-methoxybenzophenone, B6C3F1

C=CCc1ccc(OC)c(OC)c1 [Methyleugenol]
concentration in plasma [ng/mL], [1], dosed: Methyleugenol, 37 mg/kg
Details	Female	Male
0.25 h, iv, F344	7960	7180
0.5 h, iv, F344	2470	2440
0.5 h, oral, F344/N	27.3	282
0.75 h, iv, F344	1100	3230
1 h, oral, F344/N	–	243
1.5 h, iv, F344	684	610
1.5 h, oral, F344/N	–	39.6
2 h, oral, F344/N	–	17.4
2 min, iv, F344	57800	32200
2 min, oral, F344/N	29.2	35.1
3 h, iv, F344	215	232
3 h, oral, F344/N	–	12.4
4 h, oral, F344/N	–	17.8
5 h, oral, F344/N	–	15.6
5 min, iv, F344	27400	26700
5 min, oral, F344/N	108	81.2
6 h, iv, F344	–	175
8 h, oral, F344/N	17.8	6.71
10 min, oral, F344/N	345	369
20 min, oral, F344/N	267	233

O=C(c1ccccc1)c1ccc(O)cc1O [2,4-Dihydroxybenzophenone]
concentration in plasma [ng/mL], [2]
Details	0.25 h	2 h	2.5 min	3 h	10 min
50 mg/kg, iv, Female	800	44.6	–	63.1	1700
50 mg/kg, iv, Male	1440	230	–	70.5	3710
100 mg/kg, oral, Female	721	61.9	44	50.2	383
100 mg/kg, oral, Male	171	320	120	109	195
250 mg/kg, oral, Female	1340	185	71.2	120	1840
250 mg/kg, oral, Male	988	338	115	265	542
500 mg/kg, oral, Female	3280	309	–	–	2800
500 mg/kg, oral, Male	1510	282	–	–	1110

concentration in plasma [ng/mL], [1], dosed: 2-Hydroxy-4-methoxybenzophenone, oral, F344
Details	0.25 h	0.5 h	2.5 min	3 h	4 h	5 h	6 h	10 h	10 min	12 h
100 mg/kg, Female	174	145	64.3	82.3	54.2	60.3	–	–	200	–
100 mg/kg, Male	52.2	114	–	38.2	65.6	55.8	–	–	31	–
250 mg/kg, Female	410	658	–	166	157	–	–	89.8	57.2	–
250 mg/kg, Male	109	218	–	114	92.3	–	–	91.7	39.4	–
500 mg/kg, Female	287	688	–	–	296	–	–	242	178	185
500 mg/kg, Male	180	192	–	–	233	–	171	–	2430	246

CC(C)[C@]12CC(=O)[C@H](C)[C@H]1C2 [alpha-Thujone]
concentration in plasma [ng/mL], [1], dosed: alpha-Thujone, oral
Details	0.5 h	1.5 h	2 min	3 h	5 min	6 h	10 min	12 h
25 mg/kg, Female, Harlan Sprague Dawley	189	–	29.7	104	–	84.7	–	3.31
25 mg/kg, Male, Harlan Sprague Dawley	407	156	45.2	134	146	119	323	16.4
50 mg/kg, Female, F344	–	–	–	–	1480	146	1200	–
50 mg/kg, Female, Harlan Sprague Dawley	474	491	109	214	427	209	547	24.3
50 mg/kg, Male, F344	–	294	–	–	–	–	2200	–
50 mg/kg, Male, Harlan Sprague Dawley	710	116	11.9	255	–	174	2050	11.6

concentration in plasma [ng/mL], [1], dosed: 76231-76-0, 3.0 mg/kg, iv, F344
Details	2 h	2.5 h	12 h
Female	4.41	2.79	–
Male	–	–	3.95

CCC1(c2ccccc2)C(=O)NCNC1=O [Primidone]
concentration in plasma [ng/mL], [1], dosed: Primidone, oral
Details	0.25 h	0.5 h	1.5 h	3 h	6 h	9 h	12 h	18 h	22 h
30 mg/kg, Female, F344	18100	–	23900	24900	11900	5700	2200	500	–
30 mg/kg, Male, F344	8900	–	10000	6700	500	–	–	–	–
80 mg/kg, Female, F344	16900	40000	48800	75900	36400	23400	12600	3600	400
80 mg/kg, Female, Harlan Sprague-Dawley	9900	27200	–	–	–	–	1500	–	–
80 mg/kg, Male, F344	–	–	34700	37100	14000	4000	–	–	–
130 mg/kg, Female, F344	–	19600	78900	53300	24600	53800	5500	–	100
130 mg/kg, Female, Harlan Sprague-Dawley	–	–	51900	–	–	–	–	–	–
130 mg/kg, Male, F344	–	–	51500	–	22800	9000	–	–	–
130 mg/kg, Male, Harlan Sprague Dawley	–	55100	–	100000	–	–	22300	–	–
